Data: US9057727B2, “Screening methods using G-protein coupled receptors and related compositions” (The General Hospital Corporation, priority 2007, dated 2015)
Entries after “also recorded” stand apart in the source; their conditions may differ. Square brackets hold non-standard residues; d marks the D form. Peptide text beside a SMILES is read from it. hArg = N=C(N)NCCCC[C@H](N)C(=O)O; Aib = CC(C)(N)C(=O)O

Experiments:
hPTHR = molecular target: T1, hPTHR (Homo sapiens, UniProt Q03431); experiment: Radioligand dissociation from PTHR in HKRK-B7 membranes with or without GTPγS; type: binding; set-up: expressed in transfected cells
T1 sequence (Q03431 27-593): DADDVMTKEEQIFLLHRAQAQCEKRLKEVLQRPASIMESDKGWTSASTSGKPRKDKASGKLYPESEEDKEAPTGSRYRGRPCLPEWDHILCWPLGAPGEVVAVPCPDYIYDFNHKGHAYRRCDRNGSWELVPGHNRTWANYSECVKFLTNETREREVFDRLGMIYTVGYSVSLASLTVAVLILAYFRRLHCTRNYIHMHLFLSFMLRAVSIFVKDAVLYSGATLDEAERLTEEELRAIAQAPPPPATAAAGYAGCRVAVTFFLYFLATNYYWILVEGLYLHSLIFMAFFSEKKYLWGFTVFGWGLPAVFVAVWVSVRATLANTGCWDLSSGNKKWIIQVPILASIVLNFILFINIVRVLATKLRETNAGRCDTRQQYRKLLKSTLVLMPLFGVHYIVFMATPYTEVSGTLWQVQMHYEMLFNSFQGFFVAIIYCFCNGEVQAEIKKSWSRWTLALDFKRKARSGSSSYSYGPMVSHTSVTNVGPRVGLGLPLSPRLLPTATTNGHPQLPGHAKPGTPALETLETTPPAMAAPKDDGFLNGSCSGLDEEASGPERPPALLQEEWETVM
Protocol: At each time point, aliquots were removed from the reaction tubes and immediately subjected to rapid vacuum filtration using a 96-well vacuum filtration plate to separate bound from free radioactivity. Non-specific binding was determined in tubes containing the unlabeled ligand (5×10^−7 M) during both the pre-incubation and dissociation phases. The specifically bound radioactivity (SB) at each time point was then expressed as the percent of the specific binding observed at t=0. […] Curves were fit to the data using either a two-phase (FIGS. 1A and 1B) or single phase (FIG. 1C) exponential decay equation. […]
Reactions contained a total membrane protein concentration of 20 to 100 μg/mL, and a total radioactivity concentration of approximately 150,000 cpm/ml. […] At the end of the reaction, bound and free radioligand were separated by vacuum filtration using a 96-well vacuum filter plate and vacuum filter apparatus (Multi-Screen system with Durapore HV, 0.65 μM filters; Millipore Corp., Milford, Mass.); the air-dried filters were then detached from the plate and counted for gamma radioactivity using a gamma counter.
These studies were performed as bulk reactions in 15 mL round-bottom polystyrene snap-cap tubes (Falcon) (total reaction volume=5.0 ml). […] The specifically bound radioactivity at each time point was calculated as a percent of the radioactivity specifically bound at t=0.

rat PTHR [1] = molecular target: T2, rat PTHR (Rattus norvegicus, UniProt P25961); experiment: GTPγS inhibition of equilibrium radioligand binding, ROS17/2.8 membranes; set-up: the rat osteoblastic cell line ROS17/2.8, which endogenously expresses the rat PTHR; endogenous in cells; host or cells: ROS 17/2.8 rat osteosarcoma cells (membranes or intact cells)
T2 sequence (P25961 27-591): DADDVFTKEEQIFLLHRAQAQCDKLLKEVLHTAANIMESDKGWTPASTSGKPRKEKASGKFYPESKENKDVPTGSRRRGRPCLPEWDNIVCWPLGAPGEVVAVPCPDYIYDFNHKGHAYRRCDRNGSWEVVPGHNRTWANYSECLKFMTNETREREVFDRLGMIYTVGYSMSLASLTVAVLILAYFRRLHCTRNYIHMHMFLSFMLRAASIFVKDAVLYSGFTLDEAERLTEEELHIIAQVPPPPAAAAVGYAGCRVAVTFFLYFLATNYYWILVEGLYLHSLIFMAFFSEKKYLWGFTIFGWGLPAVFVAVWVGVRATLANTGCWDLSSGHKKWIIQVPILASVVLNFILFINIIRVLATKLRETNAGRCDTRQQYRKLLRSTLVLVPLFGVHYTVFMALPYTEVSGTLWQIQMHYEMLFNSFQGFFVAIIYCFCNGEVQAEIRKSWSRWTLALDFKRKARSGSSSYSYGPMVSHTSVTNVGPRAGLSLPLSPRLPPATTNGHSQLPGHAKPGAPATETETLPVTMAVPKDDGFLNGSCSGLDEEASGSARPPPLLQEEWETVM
Protocol: FIGS. 2A and 2B are graphs showing GTPγS sensitivity of PTH and PTHrP analog binding to the human and rat PTHRs. Radioligand analog binding to the PTHR in membranes prepared from HKRK-B7 (FIG. 2A) or ROS 17/2.8 cells (FIG. 2B) was assessed under near-equilibrium conditions in the absence or presence of varying concentrations of GTPγS. Data are expressed as a percent of radioactivity specifically bound (SB) in the absence of GTPγS. […] The radioligands studied were ^125I-[Nle^8,21,Tyr^34]PTH(1-34)NH2 (SEQ ID NO:123); [Tyr^36]PTHrP(1-36)NH2 (SEQ ID NO:124); [Ile^5,Tyr^36]PTHrP(1-36)NH2 (SEQ ID NO:125) and [Aib^1,3,Nle^8,Gln^10,Har^11,Ala^12,Trp^14,Tyr^15]hPTH(1-15)NH2 (SEQ ID NO:126).
The effects of GTPγS on the binding of these radioligands to the PTHR under approximate-equilibrium conditions was assessed. by incubating with cell membranes for 90 minutes in the absence or presence of GTPγS at varying concentrations. […]
Binding reactions performed with ^125I-[Aib^1,3,M]PTH(1-15) radioligand were assembled and incubated in the wells of the 96-well, Multi-Screen vacuum filtration plates. […] For both radioligands, the non-specific binding was determined in reactions containing a saturating concentration of the unlabeled analog of the radioligand. The specifically bound radioactivity was calculated as a percent of the radioactivity specifically bound in the absence of a competing ligand or GTPγS.

[2] = molecular target: T3, PTHR lacking the extracellular N-terminal (N) domain (delNT) (Homo sapiens, UniProt Q03431); experiment: cAMP activity in cells expressing PTHR lacking the N domain (delNT); type: cell-based
T3 construct: expressed in transfected cells
T3 sequence (Q03431 with tags, fused parts or gaps limits assumed): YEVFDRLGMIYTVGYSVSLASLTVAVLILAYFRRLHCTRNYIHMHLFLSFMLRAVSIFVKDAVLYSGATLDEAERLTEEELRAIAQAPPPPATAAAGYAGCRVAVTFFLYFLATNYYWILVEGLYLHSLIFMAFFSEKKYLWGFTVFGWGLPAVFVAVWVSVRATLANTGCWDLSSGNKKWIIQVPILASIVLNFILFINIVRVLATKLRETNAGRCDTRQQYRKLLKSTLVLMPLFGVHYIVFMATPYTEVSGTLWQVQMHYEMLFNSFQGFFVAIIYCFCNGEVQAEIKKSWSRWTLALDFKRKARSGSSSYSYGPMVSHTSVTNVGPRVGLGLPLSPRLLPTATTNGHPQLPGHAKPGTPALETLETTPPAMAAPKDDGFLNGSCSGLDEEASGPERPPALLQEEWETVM

rat PTHR [3] = molecular target: T2, rat PTHR; experiment: cAMP formation in HEK-293 cells transfected with rat PTHR; type: cell-based; settings: versus M-PTH(1-28)
Text: (§1) To impair PLC signaling, we replaced alanine at position 1 of M-PTH(1-28) with tryptophan, in accordance with findings of Bisello and colleagues (J Biol Chem 277:38524-30, 2002) showing that such bulky substitutions at this position selectively impair PLC signaling.

rat PTHR [4] = molecular target: T2, rat PTHR; experiment: IP3 formation in HEK-293 cells transfected with rat PTHR; type: cell-based; settings: versus M-PTH(1-28)
Text: as §1

MC3T3-E1 cells = experiment: Prolonged cAMP response after ligand wash-out in MC3T3-E1 cells; type: cell-based
Text: as §1

[5] = Plasma phosphate in mice (20 nmol/kg); type: in vivo
Text: as §1

NaPi-IIa = NaPi-IIa staining in renal PT cells of injected mice; settings: mouse, in vivo
Text: To help elucidate further the signaling mechanisms by which PTH ligands regulate renal phosphate transport, we developed a derivative of M-PTH(1-28) that is defective for PLC/PKC signaling, yet retains potent cAMP/PKA signaling activity. Such a peptide allows for study of the relative roles of the PKA and PKC signaling pathways in modulating the function and surface expression of the Pi transporters NaPi-IIa and NaPi-IIc in proximal tubule (PT) cells. The analog M-PTH(1-28) (M=Ala^1,Aib^3,Gln^10, Har^11,Trp^14,Arg^19), a potent agonist for cAMP and IP3 signaling pathways, induces, when injected into mice, prolonged hypophosphatemic and hypercalcemic effects.
as §1

NaPi-IIc = NaPi-IIc immunostaining in renal PT cells of injected mice; type: in vivo; settings: interval 4 to 6 h
Text: as §1

[6] = system: LLC-PK1 cells expressing NaPi-IIc transporter and the rat PTHR; experiment: 32P uptake in LLC-PK1 cells expressing NaPi-IIc transporter and rat PTHR; type: cell-based
Text: as §1

[7] = molecular target: T4, ROS 17/2.8 cells (endogenous rat PTHR) (Rattus norvegicus, UniProt P25961); experiment: Acute cAMP response in ROS 17/2.8 rat osteoblastic cells; type: cell-based; settings: 10^−7 M, hPTH(1-28) 10^−6 M, basal 3.7±0.4
T4 construct: the rat osteoblastic cell line ROS17/2.8, which endogenously expresses the rat PTHR; endogenous in cells; host or cells: ROS 17/2.8 rat osteosarcoma cells (membranes or intact cells)
T4 sequence (P25961 27-591): T2 sequence (P25961 27-591)

[8] = Plasma cAMP in mice after subcutaneous injection; type: in vivo
Protocol: FIGS. 9A-9D are graphs showing in vivo plasma cAMP levels in mice treated with PTH analogs. Wild-type mice were injected subcutaneously with vehicle (0.9% NaCl/0.05% Tween-20), or vehicle containing a PTH peptide at a dose-level of 10 to 1,000 nmol of peptide per kg of body weight, and at indicated times after injection, blood was withdrawn from the tail vein, and the amount of cAMP in the resulting plasma was quantified by radioimmuno assay. Each curve corresponds to a peptide at a defined concentration, as indicated in the graph keys. The plasma cAMP concentrations are plotted as picomole per μl plasma.
(§2) Wild-type mice were injected subcutaneously with vehicle (0.9% NaCl/0.05% Tween-20), or vehicle containing a PTH peptide so as to achieve a concentration ranging from 10 to 1000 nmol/kg of body weight. At the indicated times after injection, blood was withdrawn from the tail vein, and the amount of cAMP in the resulting plasma was quantified by radioimmuno assay (FIGS. 9A-9D).
as §2, with “at” for “so as to achieve”, “dose level of” for “concentration ranging from”, “At” for “At the”, “assay. Ionized calcium in serum was measured as above and phosphate was measured by a U.V. spectroscopic kit assay.” for “assay (FIGS. 9A-9D).”

[9] = Plasma phosphate and serum ionized calcium in mice after subcutaneous injection; type: in vivo; settings: 50 nmol/kg s.c.
Protocol: FIGS. 10A and 10B are graphs showing in vivo plasma phosphate and serum ionized calcium levels in mice treated with PTH analogs. […] Serum ionized calcium concentrations were determined using a Chiron Diagnostics Model 634 Ca^++/pH analyzer. Data in A are means (±s.e.m.) of one experiment using six mice (n=6) for each injection condition; similar results were obtained in three other experiments. Data in B are means (±s.e.m.) of two experiments, each performed using triplicate mice (n=3) for each injection condition.
The mice were further analyzed for changes in plasma phosphate and serum ionized calcium concentrations. […] At the indicated times after injection, blood was withdrawn from the tail vein and the concentrations of plasma phosphate (FIG. 10A) and serum ionized calcium (FIG. 10B) were determined. Serum ionized calcium concentrations were determined using a Chiron Diagnostics Model 634 Ca^++/pH analyzer. Plasma phosphate concentrations were measured using a Phosphorous Liqui-UV assay kit (StanBio Laboratory, Boerne, Tex.).
as §2, with “at” for “so as to achieve”, “dose level of” for “concentration ranging from”, “At” for “At the”, “assay. […]” for “assay (FIGS. 9A-9D).”

[10] = system: opossum kidney (OK) cell line; experiment: Phosphate uptake inhibition in opossum kidney cells; type: cell-based; settings: 10 minute exposure, 1×10^−7 M
Protocol: Data are means (±s.e.m.) of two experiments, each performed in duplicate.
Inhibition of phosphate uptake was assessed using the opossum kidney (OK) cell line, which are derived from the renal proximal tubule.
Cells were treated for 10 minutes at 37° C. with media (vehicle) or media containing a peptide ligand (1×10^−7 M); then (t=0), the cells were then rinsed three times with media and incubated in alone at 37° C. for varying times. At each time point, ^32PO4 was then added to the media, and after five minutes of incubation, the cells were washed, lysed, and the lysate was counted for ^32P beta radioactivity by liquid scintillation counting.

Molecule: ^125I[Tyr^36]PTHrP(1-36)NH2 [^125I-PTHrP(1-36)]
- fraction of complexes stable, decaying slowly (hPTHR; absence of GTPγS): 68%
- fraction of complexes unstable, decaying rapidly (hPTHR; with GTPγS): 72%
- sensitivity of binding to GTPγS, in words (rat PTHR [1]): strongly inhibited

Molecule: PTHrP(1-14) (AVSEHQLLHDKGKS)
- cAMP potency on delNT compared with PTH counterparts, in words [2]: much less potent for cAMP activity

Molecule: Trp^1-M-PTH(1-28)
- potency for stimulating cAMP formation, in words (rat PTHR [3]): about as potent as M-PTH(1-28)
- fold less potent than parent peptide for stimulating IP3 formation (rat PTHR [4]): at least 100 fold
- cAMP response after ligand wash-out, in words (MC3T3-E1 cells): retained the capacity to produce a prolonged cAMP response
- time of maximal suppression of plasma phosphate [5]: 2 h
- time of recovery of plasma phosphate to vehicle control levels [5]: 6 h
- apical and cytoplasmic NaPi-IIa staining, in words (NaPi-IIa): remained reduced for at least six hours
- NaPi-IIc immunostaining, in words (NaPi-IIc): unchanged
- ^32P uptake, in words [6]: failed to inhibit

Molecule: CC[C@H](C)[C@H](NC(=O)[C@H](CCC(=O)O)NC(=O)C(C)(C)NC(=O)[C@@H](NC(=O)[C@H](C)N)C(C)C)C(=O)N[C@@H](CCC(N)=O)C(=O)N[C@@H](CC(C)C)C(=O)N[C@@H](CCSC)C(=O)N[C@@H](Cc1c[nH]cn1)C(=O)N[C@@H](CCC(N)=O)C(=O)N[C@@H](CCCCNC(=N)N)C(=O)N[C@@H](C)C(=O)N[C@@H](CCCCN)C(=O)N[C@@H](Cc1c[nH]c2ccccc12)C(=O)N[C@@H](CC(C)C)C(=O)N[C@@H](CC(N)=O)C(=O)N[C@@H](CO)C(=O)N[C@@H](CCSC)C(=O)N[C@@H](CCCNC(=N)N)C(=O)N[C@@H](CCCNC(=N)N)C(=O)N[C@H](C(=O)N[C@@H](CCC(=O)O)C(=O)N[C@@H](Cc1c[nH]c2ccccc12)C(=O)N[C@@H](CC(C)C)C(=O)N[C@@H](CCCNC(=N)N)C(=O)N[C@@H](CCCCN)C(=O)N[C@@H](CCCCN)C(=O)N[C@@H](CC(C)C)C(N)=O)C(C)C [[A^1,Aib^3,M]-PTH(1-28), [Ala^1,12,Aib^3,Gln^10,homoarginine^11,Trp^14,Arg^19]human(h)PTH(1-28)NH2] (H-AV[Aib]EIQLMHQ[hArg]AKWLNSMRRVEWLRKKL-NH2; N-terminus assumed)
- maximum cAMP response (ligand with IBMX 10 minutes, no wash-out) [7]: 71±1 pmole/well
- dose producing comparable increase in plasma cAMP [8]: 50 nmol/kg
- duration of serum calcium and plasma phosphate responses, in words [9]: more prolonged than those to hPTH(1-34)NH2
- duration of phosphate uptake inhibition, in words [10]: dramatically prolonged inhibitory effect on phosphate uptake
- time of maximal suppression of plasma phosphate [5]: 2 h
- time of recovery of plasma phosphate to vehicle control levels [5]: 6 h
- apical and cytoplasmic NaPi-IIa staining, in words (NaPi-IIa): prolonged reductions in NaPi-IIa immunoreactivity; also recorded: remained reduced for at least six hours
- NaPi-IIc immunostaining, in words (NaPi-IIc): reduced
- ^32P uptake, in words [6]: inhibited
